Experimental data reported in ChEMBL document CHEMBL1909046, “DrugMatrix in vitro pharmacology data”.

Experiments:
[1] = DRUGMATRIX: Glutamate, NMDA, Agonism radioligand binding (ligand: [3H] CGP-39653); format: cell membranes, Rattus norvegicus, Wistar, Cerebral cortex, Membrane; settings: Not Active = under 50% inhibition at 10 µM
[2] = target: Sodium-dependent noradrenaline transporter (Homo sapiens, UniProt P23975); experiment: DRUGMATRIX: Norepinephrine Transporter radioligand binding (ligand: [125I] RTI-55); format: cell membranes, MDCK, Membrane; settings: Not Active = under 50% inhibition at 10 µM
Sequence of Sodium-dependent noradrenaline transporter (P23975 whole entry): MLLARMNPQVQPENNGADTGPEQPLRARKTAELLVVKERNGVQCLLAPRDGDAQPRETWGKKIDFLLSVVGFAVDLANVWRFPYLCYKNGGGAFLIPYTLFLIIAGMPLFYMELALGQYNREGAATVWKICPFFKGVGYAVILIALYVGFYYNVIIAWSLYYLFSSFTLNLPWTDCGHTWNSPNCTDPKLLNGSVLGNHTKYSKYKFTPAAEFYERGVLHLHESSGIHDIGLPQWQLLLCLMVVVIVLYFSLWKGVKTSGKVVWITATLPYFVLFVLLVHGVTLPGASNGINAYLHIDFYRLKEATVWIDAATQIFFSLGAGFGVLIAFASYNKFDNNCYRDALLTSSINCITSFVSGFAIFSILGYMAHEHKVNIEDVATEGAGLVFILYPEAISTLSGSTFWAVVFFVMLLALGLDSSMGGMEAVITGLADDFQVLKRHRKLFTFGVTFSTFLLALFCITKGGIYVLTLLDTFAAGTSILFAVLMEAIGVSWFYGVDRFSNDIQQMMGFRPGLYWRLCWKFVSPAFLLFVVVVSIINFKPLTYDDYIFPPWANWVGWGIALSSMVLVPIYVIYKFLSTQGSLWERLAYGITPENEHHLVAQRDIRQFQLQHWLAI

Substance-K receptor = target: T1, Substance-K receptor (Homo sapiens, UniProt P21452); format: cell membranes, CHO, Membrane; settings: cho; note: in other assays of this panel Not Active means under 50% inhibition at 10 µM
T1 sequence (P21452 whole entry): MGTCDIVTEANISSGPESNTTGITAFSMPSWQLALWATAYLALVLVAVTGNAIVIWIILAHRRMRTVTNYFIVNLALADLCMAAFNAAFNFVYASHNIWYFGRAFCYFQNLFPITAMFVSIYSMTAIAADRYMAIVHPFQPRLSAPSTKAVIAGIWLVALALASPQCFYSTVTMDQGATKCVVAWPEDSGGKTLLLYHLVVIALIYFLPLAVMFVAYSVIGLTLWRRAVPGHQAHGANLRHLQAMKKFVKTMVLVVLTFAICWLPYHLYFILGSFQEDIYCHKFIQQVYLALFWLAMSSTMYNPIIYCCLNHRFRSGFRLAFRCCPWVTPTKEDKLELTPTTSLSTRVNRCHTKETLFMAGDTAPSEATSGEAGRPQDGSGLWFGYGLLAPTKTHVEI

[3] = target: cGMP-specific 3',5'-cyclic phosphodiesterase (Homo sapiens, UniProt O76074); experiment: DRUGMATRIX: Phosphodiesterase PDE5 enzyme inhibition (substrate: [3H]cGMP + cGMP); format: tissue-based, Platelet; settings: platelet; Not Active = under 50% inhibition at 10 µM
[4] = target: T2, 3-hydroxy-3-methylglutaryl-coenzyme A reductase (Homo sapiens, UniProt P04035); parameters: species or system Escherichia coli;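 note: enzyme inhibition assay of HMG-CoA reductase using radiolabeled [14C]HMG-CoA as substrate; in other assays of this panel Not Active means under 50% inhibition at 10 µM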
T2 sequence (P04035 whole entry): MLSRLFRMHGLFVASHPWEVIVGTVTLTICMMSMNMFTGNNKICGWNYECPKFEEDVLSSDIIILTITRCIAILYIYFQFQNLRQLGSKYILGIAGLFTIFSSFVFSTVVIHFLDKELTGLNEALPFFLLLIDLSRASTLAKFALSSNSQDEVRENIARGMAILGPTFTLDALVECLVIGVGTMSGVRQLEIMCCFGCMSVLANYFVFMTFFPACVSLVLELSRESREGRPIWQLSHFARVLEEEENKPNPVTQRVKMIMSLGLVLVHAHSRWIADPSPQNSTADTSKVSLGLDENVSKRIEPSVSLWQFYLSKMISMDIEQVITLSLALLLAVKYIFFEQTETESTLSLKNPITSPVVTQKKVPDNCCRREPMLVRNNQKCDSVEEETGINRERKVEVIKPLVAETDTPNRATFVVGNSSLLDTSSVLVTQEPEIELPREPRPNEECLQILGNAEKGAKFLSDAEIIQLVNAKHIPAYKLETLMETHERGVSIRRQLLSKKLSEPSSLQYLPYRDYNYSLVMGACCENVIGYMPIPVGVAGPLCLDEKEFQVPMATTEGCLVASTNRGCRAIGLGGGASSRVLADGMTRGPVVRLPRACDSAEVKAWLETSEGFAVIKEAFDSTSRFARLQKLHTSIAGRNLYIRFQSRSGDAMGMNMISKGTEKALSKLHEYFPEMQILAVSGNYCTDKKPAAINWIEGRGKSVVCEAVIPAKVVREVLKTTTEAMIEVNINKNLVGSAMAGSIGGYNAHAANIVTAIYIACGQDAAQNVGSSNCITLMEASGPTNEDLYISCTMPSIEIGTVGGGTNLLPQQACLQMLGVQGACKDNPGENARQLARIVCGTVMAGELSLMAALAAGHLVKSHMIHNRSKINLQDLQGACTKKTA

Vasopressin V1a receptor = Vasopressin V1a receptor (Homo sapiens, UniProt P37288); format: cell membranes, Membrane; settings: hek293; note: in other assays of this panel Not Active means under 50% inhibition at 10 µM
Sequence of Vasopressin V1a receptor (P37288 whole entry): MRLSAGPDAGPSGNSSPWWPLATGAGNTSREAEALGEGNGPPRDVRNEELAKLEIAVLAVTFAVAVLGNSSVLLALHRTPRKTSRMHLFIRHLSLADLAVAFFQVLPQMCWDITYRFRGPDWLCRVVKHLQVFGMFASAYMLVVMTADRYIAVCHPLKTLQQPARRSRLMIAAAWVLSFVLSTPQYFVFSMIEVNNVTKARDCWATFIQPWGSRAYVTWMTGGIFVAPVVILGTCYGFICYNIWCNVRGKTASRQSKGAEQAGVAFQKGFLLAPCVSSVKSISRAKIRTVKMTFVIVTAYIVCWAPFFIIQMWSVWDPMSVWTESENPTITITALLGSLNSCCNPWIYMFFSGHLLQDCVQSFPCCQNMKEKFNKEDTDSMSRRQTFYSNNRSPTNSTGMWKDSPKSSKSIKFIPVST

[5] = target: Tyrosine-protein kinase Lck (Homo sapiens, UniProt P06239); experiment: DRUGMATRIX: Protein Tyrosine Kinase, LCK enzyme inhibition (substrate: Poly(Glu:Tyr)); format: cell-based, Insect cells; settings: insect cells; Not Active = under 50% inhibition at 10 µM
Sequence of Tyrosine-protein kinase Lck (P06239 whole entry): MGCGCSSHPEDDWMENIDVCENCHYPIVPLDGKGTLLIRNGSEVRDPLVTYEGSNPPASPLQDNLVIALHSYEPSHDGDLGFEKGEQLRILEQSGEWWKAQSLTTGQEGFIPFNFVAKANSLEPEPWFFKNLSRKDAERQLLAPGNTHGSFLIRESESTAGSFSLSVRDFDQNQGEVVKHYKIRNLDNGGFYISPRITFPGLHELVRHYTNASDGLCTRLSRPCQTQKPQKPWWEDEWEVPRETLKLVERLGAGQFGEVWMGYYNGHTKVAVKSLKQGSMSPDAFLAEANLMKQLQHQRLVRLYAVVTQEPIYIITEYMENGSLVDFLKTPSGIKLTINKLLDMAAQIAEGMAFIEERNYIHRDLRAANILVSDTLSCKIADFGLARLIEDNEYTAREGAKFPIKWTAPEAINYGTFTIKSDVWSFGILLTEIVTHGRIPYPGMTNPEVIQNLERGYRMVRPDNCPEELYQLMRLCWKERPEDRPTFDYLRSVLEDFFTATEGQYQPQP

Molecule | IC50 [1] | Ki [1] | IC50 ([2]; read-out: IC50) [nM] | Ki ([2]; read-out: Ki) [nM] | IC50 (Substance-K receptor) | IC50 [3] | IC50 [4] | IC50 (Vasopressin V1a receptor) | IC50 [5] | IC50 ([2]; mdck) | Ki ([2]; mdck) | Ki (Substance-K receptor) | Ki [3] | Ki [4] | Ki (Vasopressin V1a receptor) | Ki [5]
CCN(CC)CCCC(C)Nc1c2ccc(Cl)cc2nc2ccc(OC)cc12 (stereo unspecified) [QUINACRINE] | Not Active | Not Active | 2900 | 2870 | Not Active | Not Active | Not Active | Not Active | Not Active | – | – | – | – | – | – | –
C[C@]12C=CC(=O)C=C1CC[C@H]1[C@@H]3C[C@@H](O)[C@](O)(C(=O)CO)[C@@]3(C)C[C@H](O)[C@@]12F [TRIAMCINOLONE] | Not Active | Not Active | – | – | Not Active | Not Active | Not Active | Not Active | Not Active | Not Active | – | – | – | – | – | –
CC[C@]1(O)C[C@@H]2CN(CCc3c([nH]c4ccccc34)[C@@](C(=O)OC)(c3cc4c(cc3OC)N(C)[C@H]3[C@@](O)(C(N)=O)[C@H](O)[C@]5(CC)C=CCN6CC[C@]43[C@@H]65)C2)C1 [VINDESINE] | Not Active | Not Active | – | – | Not Active | Not Active | Not Active | Not Active | Not Active | Not Active | – | – | – | – | – | –
CCN(C(C)=O)c1cccc(-c2ccnc3c(C#N)cnn23)c1 [ZALEPLON] | Not Active | Not Active | – | – | Not Active | Not Active | Not Active | Not Active | Not Active | Not Active | – | – | – | – | – | –
COBALTOUS CHLORIDE | Not Active | Not Active | – | – | Not Active | Not Active | Not Active | Not Active | Not Active | Not Active | Not Active | Not Active | Not Active | Not Active | Not Active | Not Active
COLISTIN | Not Active | Not Active | – | – | Not Active | Not Active | Not Active | Not Active | Not Active | Not Active | Not Active | Not Active | Not Active | Not Active | Not Active | Not Active
